For orientation: Ki means the dissociation constant of the complex between target and ligand, obtained from inhibition or displacement. A higher Ki goes with a looser hold on the target.

Drawing on patent US5874472A, “Aminoacid derivatives as no synthase inhibitors” (Glaxo Wellcome Inc., priority 1993, dated 1999), this text covers Ki for 23 compounds.

What all share (assay type): biochemical
The target in experiment [1] is T1, inducible human NOS (Homo sapiens, UniProt P35228).
T1 construct: Purification of NOS cytokine-induced human colorectal adenocarcinoma DLD-1 cells; host or cells: DLD-1 cells induced with interferon-gamma, interleukin-6, tumor necrosis factor and interleukin-1beta; 2',5' ADP Sepharose purified
Put plainly: Inhibition of inducible human NOS (citrulline formation), enzyme from cytokine-induced DLD-1 cells. The following applies: NOS from cytokine-induced DLD-1 cells; 1 μM L-[14C] arginine; pH 7.4; 10 μM FAD, no calmodulin/CaCl2. As for the experimental part:
(§1) NOS was assayed for the formation of citrulline following the procedure of Schmidt et al (PNAS 88 365-369, 1991) with these modifications: 20 mM Hepes, pH 7.4, 10 μg/ml calmodulin, 2.5 mM CaCl2 2.5 mM DTT, 125 μM NADPH 10 μM H4 Biopterin, 0.5 mg/ml BSA, and 1 μM L-[^14 C] arginine (New England Nuclear). Linearity of NOS-catalyzed rate was confirmed prior to kinetic studies that used single time point determination of rate.
Purification of NOS cytokine-induced human colorectal adenocarcinoma DLD-1 cells.
DLD-1 (ATCC No. CCL 221) were grown at 37° C., 5% CO2 in RPMI 1640 medium supplemented with L- glutamin, penicillin, streptomycin, and 10% heat-inactivated fetal bovine serum. Cells were grown to confluency and then the following cocktail of cytokines were added: 100 units/ml interferon-gamma, 200 units/ml interleukin-6, 10 ng/ml tumor necrosis factor, and 0.5 ng/ml interieukin-1β. At 10-24 hr post-induction, cells were harvested by scraping and washed with phosphate-buffered saline. Pelleted cells were stored at -70° C. Purification of the induced NOS was performed at 4° C. Crude extract was prepared by three cycles of freeze/thawing cells in TDGB (20 mM tris pH 7.5, 10% glycerol, 1 mM DTT, 2 μM tetrahydrobiopterin). Extract was applied directly onto a column of 2',5' ADP sepharse (Pharmacia). Resin was sequentially washed with TDGB, 0.5 M NaCl in TDGB, TDGB. NOS was eluted with 2 mM NADPH in TDGB. BSA was immediately added to give a final concentration of 1 mg/ml. NOS could be quick frozen and stored at -70° C. without loss in activity for at least 2 months.
Assay for inducible human NOs.
The formation of citrulline was assayed as described above except that 10 μM FAD was included and calmodulin and CaCl2 were excluded from the assay mix.

Experiment [2] deals with T2, human placental NOS (Homo sapiens, UniProt P29474).
T2 construct: Purification of NOS from human placenta; from tissue; host or cells: fresh human placenta, amnion and chorion removed; ammonium sulfate and 2',5' ADP agarose purified
Put plainly: Inhibition of human placental NOS (citrulline formation). Particulars: 1 μM L-[14C] arginine; pH 7.4; calmodulin, CaCl2. As for the experimental part: It is noted that the NO synthase isolated from human placenta most probably represents the endothelial constitutive isoenzyme.
Purification of NOS from human placenta.
Amion and chorion were removed from fresh placenta, which was then rinsed with 0.9% NaCl. The tissue was homogenized in a Waring blender in 3 volumes of HEDS buffer (20 mM Hepes pH 7.8, 0.1 mM EDTA, 5 mM DTT, 0.2M sucrose) plus 0.1 mM PMSF.
The homogenate was filtered through cheesecloth and then centrifuged at 1000 g for 20 min. The supernatant was recentrifuged at 27500 g for 30 min. Solid ammonium sulfate was added to the supernatant to give 32% saturation. Precipitated protein was pelleted at 25,000 g and then redissolved in a minimal volume of HEDS buffer plus 0.1 mM PMSF, 10 μg/ml leupeptin and soybean trypsin inhibitor, and 1 μg/ml pepstatin. The redissolved pellet was centrigued at 15000 g for 10 min. To the supernatant was added 1/20 volume of 2',5' ADP agarose resin (Sigma), and the slurry was mixed slowly overnight. In morning, slurry was packed into a column. The resin was sequentially washed with HEDS, 0.5M NaCl in HEDS, HEDS, and then NOS was eluted with 10 mM NADPH in HEDS. The enzyme could be concentrated by ultrafiltration and quick frozen and stored at -70° C. without loss in activity for at least 6 months.
Assay for human placental NOS
as §1

The target of experiment [3] is T3, human brain NOS (Homo sapiens, UniProt P29475).
T3 construct: Purification of NOS from human brain; from tissue; host or cells: frozen human brain; ammonium sulfate, 2',5' ADP-agarose, calmodulin-agarose
Put plainly: Inhibition of human brain NOS (citrulline formation). Particulars: Schmidt et al. 1991 procedure, 10 μM tetrahydrobiopterin included. On the procedure: Purification of NOS from human brain
Human brain NOS was prepared using variations of the procedures of Schmidt et al. (PNAS 88 365-369, 1991), Mayer et al. (Fed. Eur. Biochem. Soc. 288 187-191, 1991), and Bredt and Snyder, (PNAS 87 682-685, 1990). Briefly, frozen human brain (1050 gm) was homogenized in cold buffer A (50 mM HEPES, pH 7.5 (pH at RT) and 0.5 mM EDTA, 10 mM DTT, 3.6 L total volume) with a polytron. The mixture was centrifuged at 13,000 g for 1 hour and the supernatant was removed (about 2050 ml). To the supernatant, solid aimmonium sulfate (365 gm, about 30% of saturation) was added and stirred slowly for a total of 30 minutes. The precipitate was pelleted at 13,000 g for 30 minutes and the pellet was resuspended in ~400 mls of buffer A with 4 μM tetrahydrobiopterin, 1 μM FAD (Sigma), 1 μM FMN (Sigma). The solution was centrifuged at 41,000 g for 60 minutes. The supernatant was removed, frozen by pouring into liquid nitrogen, and stored overnight at -70° C. The mixture was thawed and passed through a 2',5' ADP-agarose column (0.4 g swelled in buffer A) at 4 ml/min. The column was washed with 100 ml buffer A, 200 ml buffer A with 500 mM NaCl, 100 ml Buffer A, then 30 ml buffer A with 5 mM NADPH. To the enzyme eluted from the column was added glycerol to 15%, CaCl2 to 1 mM, tetrahydrobiopterin to 10 μM, tween to 0.1% and FAD, FMN to 1 μM each. The enzyme was then passed through a 1 ml calmodulin-agarose column which had been equilibrated in Buffer A, 15% glycerol and 1 mM CaCl2. The column was washed with 15 ml Buffer A, 15% glycerol and 1 mM CaCl2, 15 ml of Buffer A, 15% glycerol and 5 mM EDTA, and then enzyme activity was eluted with 3 ml of Buffer A, 15% glycerol and 5 mM EDTA, 1 M NaCl. To the enzyme was added tetrahydrobiopterin to 10 μM, FAD and FMN to 1 μM, and tween to 0.1%. This solution was concentrated by centriprep-30 to a volume of approximately 500 μl. Human NOS was prepared completely analogously except the calmodulin-agarose column was not used. Enzyme activity was determined as described by Schmidt et al. 1991, except that 10 μM tetrahydrobiopterin was included in the assay.

Some results are limits rather than exact numbers.

As for `CNC(=N)NCc1ccc(CC(N)C(=O)O)s1` (racemic) [Compound 20, 3-(5-(N'-methylguanidino)methyl)-2-thienyl)-DL-alanine], the Ki in experiment [1], in experiment [2] and in experiment [3] was greater than 50 µM each time.

Turning to `N=C(Nc1ccc(CC(N)C(=O)O)s1)NC1CC1` (racemic) [Compound 5, 3-(5-N'-cyclopropylguanidino-2-thienyl)-DL-alanine], the Ki in experiment [1] was greater than 50 µM; in experiment [2] it was no more than 10 µM; in experiment [3], no more than 10 µM.

With `NC(=NC1CC1)Nc1ccccc1CC(N)C(=O)O` (racemic) [Compound 11, 2-(N'-cyclopropylguanidino)-DL-phenylalanine], the Ki was no more than 1 µM in experiment [1], no more than 0.5 µM in experiment [2] and no more than 1 µM in experiment [3].

With `CNC(=N)Nc1ccc(CC(N)C(=O)O)s1` (racemic) [Compound 1, 3-(5-N'-methylguanidino-2-thienyl)-DL-alanine], the Ki is greater than 50 µM in experiment [1], no more than 10 µM in experiment [2] and no more than 50 µM in experiment [3].

For `N=C(N)Nc1ccc(CC(N)C(=O)O)cc1` (racemic) [Compound 13, 4-Guanidino-DL-phenylalanine], the Ki in experiment [1], in experiment [2] and in experiment [3] was greater than 50 µM in each case.

As for `CCSC(=N)Nc1ccc(C[C@H](N)C(=O)O)cc1` [Compound 30, 4-(S-ethylisothioureido)-L-phenylalanine], the Ki in experiment [1] was no more than 10 µM; in experiment [2], no more than 0.5 µM; in experiment [3] it was no more than 0.5 µM.

On to `CSC(=N)Nc1ccccc1CC(N)C(=O)O` (racemic) [Compound 8, 2-(S-methylisothioureido)-DL-phenylalanine], for which the values for the Ki in experiment [1], in experiment [2] and in experiment [3] were no more than 10 µM, no more than 1 µM and no more than 1 µM, respectively.

As for `C=CCNC(=N)Nc1ccc(CC(N)C(=O)O)s1` (racemic) [Compound 6, 3-(5-N'-allylguanidino-2-thienyl)-DL-alanine], the Ki in experiment [1], in experiment [2] and in experiment [3] was no more than 10 µM throughout.

On to `CNC(=N)Nc1ccc(CC(N)C(=O)O)cc1` (racemic) [Compound 17, 4-N-methylguanidino-DL-phenylalanine], for which the Ki in experiment [1] was greater than 50 µM; in experiment [2], no more than 50 µM; in experiment [3], no more than 50 µM.

`N=C(NCc1ccc(CC(N)C(=O)O)s1)NC1CC1` (racemic) [Compound 21, 3-(5-(N'-cyclopropylguanidino)methyl)-2-thienyl)-DL-alanine]: the Ki in experiment [1], in experiment [2] and in experiment [3] was greater than 50 µM in each case.

`CCSC(=N)Nc1ccc(CC(N)C(=O)O)s1` (racemic) [Compound 4, 3-(5-S-ethylisothioureido-2-thienyl)-DL-alanine]: the Ki in experiment [1] was greater than 50 µM; in experiment [2], no more than 10 µM; in experiment [3], no more than 50 µM.

On to `CC(=N)Nc1ccccc1CC(N)C(=O)O` (racemic) [Compound 19, 2-((1-iminoethyl)amino)-DL-phenylalanine], for which the Ki in experiment [1] and in experiment [2] was no more than 10 µM throughout.

Consider `CSC(=N)Nc1cccc(CC(N)C(=O)O)c1` (racemic) [Compound 26, 3-(S-methylisothioureido)-DL-phenylalanine], for which the values for the Ki in experiment [1], in experiment [2] and in experiment [3] were no more than 50 µM, no more than 10 µM and no more than 10 µM, respectively.

For the compound `N=C(N)Nc1ccc(CC(N)C(=O)O)s1` (racemic) [Compound 2, 3-(5-Guanidino-2-thienyl)-DL-alanine], the Ki is no more than 50 µM in experiment [1], no more than 50 µM in experiment [2] and no more than 10 µM in experiment [3].

Regarding `CNC(N)=Nc1cccc(CC(N)C(=O)O)c1` (racemic) [Compound 16, 3-N-methylguanidino-DL-phenylalanine], the Ki in experiment [1] was greater than 50 µM; in experiment [2], no more than 10 µM; in experiment [3] it was no more than 10 µM.

In the case of `CC(=N)Nc1cccc(CC(N)C(=O)O)c1` (racemic) [Compound 14, 3-acetamidino-DL-phenylalanine], the Ki in experiment [1], in experiment [2] and in experiment [3] was greater than 50 µM throughout.

On to `N=C(N)Nc1cccc(CC(N)C(=O)O)c1` (racemic) [Compound 12, 3-guanidino-DL-phenylalanine], for which the Ki in experiment [1] was greater than 50 µM; in experiment [2] it was no more than 50 µM; in experiment [3], no more than 50 µM.

For the compound `CCSC(=N)NCc1ccc(CC(N)C(=O)O)s1` (racemic) [Compound 23, 3-(5-((S-ethylisothioureido)methyl)-2-thienyl)-DL-alanine], the Ki in experiment [1], in experiment [2] and in experiment [3] was no more than 10 µM throughout.

In the case of “4-Acetamido-DL-phenylalanine [Compound 15]”, the inhibition constant (Ki) in experiment [1], in experiment [2] and in experiment [3] was greater than 50 µM throughout.

On to `NC(N)=Nc1ccccc1CC(N)C(=O)O` (racemic) [Compound 3, 2-Guanidino-DL-phenylalanine], for which the Ki was no more than 10 µM in experiment [1], no more than 0.5 µM in experiment [2] and no more than 0.5 µM in experiment [3].

As to `CCSC(=N)NCc1ccc(C(N)C(=O)O)s1` (racemic) [Compound 25], the results for the Ki in experiment [1], in experiment [2] and in experiment [3] were no more than 10 µM, no more than 50 µM and no more than 10 µM, respectively.

As to `NC(=S)Nc1ccccc1CC(N)C(=O)O` (racemic) [Compound 7, 2-thioureido-DL-phenylalanine], the Ki in experiment [1], in experiment [2] and in experiment [3] was no more than 10 µM throughout.

On to `NC(=S)Nc1ccc(C[C@H](N)C(=O)O)cc1` [Compound 28, 4-thioureido-L-phenylalanine], for which the Ki in experiment [1], in experiment [2] and in experiment [3] was greater than 50 µM in each case.
